In US7112598B2, “κ opioid receptor agonist comprising 2-phenylbenzothiazoline derivative” (Santen Pharmaceutical Co., Ltd., priority 2002, dated 2006):
Where a name gives a salt, the structure may show the parent alone.

Experiments:
[1] = test system: mouse acetic acid writhing; assay: Antinociceptive action test by mouse acetic acid writhing method; assay type: in vivo; settings: 30 mg/kg oral, 20 min before 0.7% acetic acid i.p., writhing counted 10 to 20 minutes after acetic acid, vs vehicle group, average of seven samples
Procedure: 2. Antinociceptive Action Tests by Mouse Acetic Acid Writhing Method
Accordingly, antinociceptive action tests of test compounds were carried out using the mouse acetic acid writhing method, and analgesic effects of the test compounds were evaluated.
Twenty minutes after oral administration of the test compound (30 mg/kg), the 0.7% acetic acid solution was administered intraperitoneally in a rate of 0.1 ml per 10 g of mouse weight.
Inhibition rates were calculated according to the following equation.
The antinociceptive action of the test compound was expressed in an inhibition rate to writhing numbers of a vehicle group.

[2] = biological target: human κ opioid receptor (Homo sapiens, UniProt P41145); assay: κ opioid receptor agonist activity test in GTP binding activity measurement system ([35S]GTPγS binding); assay type: biochemical; settings: test compound concentration 10^−9 M, binding of 10^−6 M (−)-U50488 = 100%, human κ opioid receptor membrane preparation, average of duplicate
Procedure: 1. κ Opioid Receptor Agonist Activity Tests in GTP Binding Activity Measurement System
Jinmin Zhu et al. reported a method of evaluating agonist activities of drugs on a κ opioid receptor wherein guanosine 5′-triphosphate (GTP) radiolabelled with a human κ opioid receptor is used in J. Pharmaco. Exp. Ter., 282, 676–684 (1997). κ opioid receptor agonist activities (actions) of test compounds were evaluated according to the method described in the above-mentioned literature.
N-2-Hydroxyethylpiperazine-N′-2-ethanesulfonic acid (HEPES, 4.77 g), magnesium chloride hexahydrate (2.03 g), sodium chloride (5.84 g), disodium […] (EDTA•2Na, 0.37 g), DL-dithiothreitol (DTT, 0.15 g) and bovine serum albumin (BSA, 1.0 g) were dissolved in ultrapure water, pH was adjusted to 7.4 with sodium hydroxide, and further ultrapure water was added to the mixture so that a total amount was one liter to prepare a incubation buffer.
Nine volume of the incubation buffer was added to one volume of dimethyl sulfoxide (DMSO) to prepare a 10% DMSO-incubation buffer.
Tris(hydroxymethyl)aminomethane hydrochloride (TRIZA-HCl, 66.1 g) and Tris(hydroxymethyl)aminomethane (TRIZA-Base, 9.7 g) were dissolved in ultrapure water so that a total amount was 10 liters to prepare a 50 mM Tris-hydrochloric acid buffer (pH 7.4).
A human κ opioid receptor membrane preparation (100 unit/ml) was diluted 60 times with the incubation buffer under ice-cold to prepare a human κ opioid receptor membrane preparation solution. The membrane preparation solution was preserved under ice-cold.
A test compound was dissolved in 100% DMSO to prepare a 10^−3 M test compound solution, and then the incubation buffer was added to the 10^−3 M test compound solution to prepare a 10^−4 M test compound solution. Next, the 10% dimethyl sulfoxide-incubation buffer was added to the 10^−4 M test compound solution to prepare a 10^−5 M, 10^−6 M, 10^−7 M, 10^−8 M or 10^−9 M test compound solution.
A drug (−)-U50488 (J. Pharmacol. Exp. Ther., 224, 7–12 (1983)), which is known as a κ opioid receptor agonist, was used as a positive control drug in the tests.
(−)-U-50488 was dissolved in 100% DMSO to prepare a 10^−3 M positive control drug solution, and then the incubation buffer was added to the 10^−3 M positive control drug solution to prepare a 10^−4 M positive control drug solution. Next, the 10% DMSO-incubation buffer was added to the 10^−4 M positive control drug solution to prepare a 10^−6 M positive control drug solution.
GDP was dissolved in ultrapure water to prepare a 10^−3 M GDP solution, and the incubation buffer was added to the 10^−3 M GDP solution to prepare a 10^−5 M GDP solution.
10^−3 M [^35S]GTPγS was diluted with the incubation buffer to prepare 10^−9 M radiolabelled reagent.
• 1. The incubation buffer (50 μl), the 10^−5 M GDP solution (50 μl), the human κ opioid receptor membrane preparation solution (300 μl), the test compound solution and the 10^−9 M radiolabelled reagent (50 μl) were put into a glass tube, and then the mixture was incubated at 30° C. for 60 minutes. • 2. The 50 mM Tris-hydrochloric acid buffer (pH 7.4) was added to the mixture to stop the reaction, the reaction mixture was suction-filtered with a GF/B filter, and then the residue on the GF/B filter was washed with the 50 mM Tris-hydrochloric acid buffer (3 ml) three times. • 3. The GF/B filter was air-dried, and then the residue on the GF/B filter was taken out with an antomatic dispenser and transfered into a vial. • 4. Scintisol EX-H (5 ml) was introduced into the vial to prepare a sample solution, and then radioactivity in the sample solution was measured with a liquid scintillation counter for one minute. The radioactivity was expressed in “cpm” (counts per minute). Calculation Formula of κ Opioid Receptor Agonist Activity
Each agonist activity of the test compound on the κ opioid receptor was expressed in [^35S]GTPγS binding % when [^35S]GTPγS binding of 10^−6 M (−)-U50488 was 100%. […]

Sequence of human κ opioid receptor (P41145 whole entry): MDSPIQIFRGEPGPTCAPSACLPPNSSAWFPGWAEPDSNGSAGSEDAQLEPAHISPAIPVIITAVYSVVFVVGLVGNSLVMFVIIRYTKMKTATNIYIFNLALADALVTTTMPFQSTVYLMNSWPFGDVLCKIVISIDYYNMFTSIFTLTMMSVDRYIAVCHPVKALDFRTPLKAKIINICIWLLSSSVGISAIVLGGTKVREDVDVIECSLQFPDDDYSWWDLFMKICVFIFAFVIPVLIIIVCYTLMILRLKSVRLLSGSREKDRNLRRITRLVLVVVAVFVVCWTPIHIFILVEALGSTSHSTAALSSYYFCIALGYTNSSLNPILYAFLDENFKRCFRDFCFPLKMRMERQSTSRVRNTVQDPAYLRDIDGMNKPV

Row | SMILES | Inhibition rate (%) [1] [%] | [^35S]GTP γ S binding % [2] [%] | also measured
1 | COCCOCOCCN(CCCOc1ccc(OC)cc1C1Sc2cc(Cl)ccc2N1C(C)=O)C(C)C (stereo not drawn) [Compound No. 20-2, 3-Acetyl-6-chloro-2-[2-(3-(N-isopropyl-N-(2-(2-methoxyethoxymethoxy)-ethyl)amino)propoxy)-5-methoxyphenyl]benzothiazoline] | 81.7 | 50.5 | 
2 | CCOCCN(CCCOc1ccc(OC)cc1C1Sc2cc(Cl)ccc2N1C(C)=O)C(C)C (stereo not drawn) [Compound No. 3-33, 3-Acetyl-6-chloro-2-[2-(3-(N-(2-ethoxyethyl)-N-isopropylamino)-propoxy)-5-methoxyphenyl]benzothiazoline Hydrochloride] |  |  | Inhibition rate (%) ([1]; Hydrochloride, 30 mg/kg): 99.5%; [^35S]GTP γ S binding % ([2]; Hydrochloride): 75.8%
3 | COc1ccc(OCCCN(C)C(C)C)c(C2Sc3cc(Cl)ccc3N2C(C)=O)c1 (single isomer, unassigned; (+)) [Compound No. 9-12, (+)-3-Acetyl-6-chloro-2-[2-(3-(N-isopropyl-N-methylamino)propoxy)-5-methoxyphenyl]benzothiazoline Hydrochloride] | 57.8 | 107.9 | 
4 | CCOCCN(CCCOc1ccc(OC)cc1C1Sc2ccccc2N1C(C)=O)C(C)C (single isomer, unassigned; (+)) [Compound No. 11-1, (+)-3-Acetyl-2-[2-(3-(N-(2-ethoxyethyl)-N-isopropylamino)propoxy)-5-methoxyphenyl]benzothiazoline Hydrochloride] |  |  | inhibition in vivo at 30 mg/kg ([1]; read-out: Inhibition rate (%)): 98.3%; activation at 0.001 µM ([2]; read-out: [^35S]GTP γ S binding %): 66.8%
5 | CCOCCN(CCCOc1ccc(OC)cc1C1Sc2cc(Cl)ccc2N1C(C)=O)C(C)C (single isomer, unassigned; (+)) [Compound No. 9-3, (+)-3-Acetyl-6-chloro-2-[2-(3-(N-(2-ethoxyethyl)-N-isopropylamino)-propoxy)-5-methoxyphenyl]benzothiazoline Hydrochloride] |  |  | Inhibition rate (%) ([1]; Hydrochloride, 30 mg/kg): 100.0%; [^35S]GTP γ S binding % ([2]; Hydrochloride): 117.5%
6 | COc1ccc(OC(C)CCN(CCO)C(C)C)c(C2Sc3cc(Cl)ccc3N2C(C)=O)c1 (stereo not drawn) [Compound No. 7-2, 3-Acetyl-6-chloro-2-[2-(3-(N-(2-hydroxyethyl)-N-isopropylamino)-1-methylpropoxy)-5-methoxyphenyl]benzothiazoline Hydrochloride] | 70.0 | 62.9 | 
7 | COCCN(CCCOc1ccc(OC)cc1C1Sc2cc(Cl)ccc2N1C(C)=O)C(C)C (stereo not drawn) [Compound No. 3-25, 3-Acetyl-6-chloro-2-[2-(3-(N-isopropyl-N-(2-methoxyethyl)amino)-propoxy)-5-methoxyphenyl]benzothiazoline Hydrochloride] | 91.0 | 67.9 | 
8 | COCOCCN(CCCOc1ccc(OC)cc1C1Sc2cc(Cl)ccc2N1C(C)=O)C(C)C (stereo not drawn) [Compound No. 20-1, 3-Acetyl-6-chloro-2-[2-(3-(N-isopropyl-(N-(2-methoxymethyloxy-ethyl))amino)propoxy)-5-methoxyphenyl]benzothiazoline] | 94.8 | 65.1 | 
9 | COc1ccc(OCCCN(CCO)C(C)C)c(C2Sc3ccc(Cl)cc3N2C(C)=O)c1 (stereo not drawn) [Compound No. 5-3, 3-Acetyl-5-chloro-2-[2-(3-(N-(2-hydroxyethyl)-N-isopropylamino)-propoxy)-5-methoxyphenyl]benzothiazoline Hydrochloride] | 51.6 | 51.2 | 
